What was measured:
Format in all cases: in vivo
[1] = test system: Amaranthus retoflexus (AMARE); assay: Post-emergence Test (glasshouse, percentage damage to the plant); conditions: 1000 g/ha unless otherwise stated, evaluated after 13 days; for Post-emergence Test AMARE, percentage damage to the plant (five-point scale): post-emergence spray; for AMARE, percentage damage caused to the plant (five-point scale): post-emergence
Method in brief: (§1)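 Damage was rated 13 days after treatment and expressed on a five-point scale: 5=81-100%, 4=61-80%, 3=41-60%, 2=21-40%, 1=0-20%. Spray was applied at 1000 g/ha unless otherwise stated, from acetone/water (50:50) with 0.5% Tween 20, to sown pots.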

[2] = test system: Echinochloa crus-galli (ECHCG); assay: as above; conditions: 1000 g/ha unless otherwise stated, evaluated after 13 days; for Post-emergence Test ECHCG, percentage damage to the plant (five-point scale): post-emergence spray; for ECHCG, percentage damage caused to the plant (five-point scale): post-emergence
Method in brief: as §1

[3] = test system: Ipomoea hederacea (IPOHE); assay: as above; conditions: 1000 g/ha unless otherwise stated, evaluated after 13 days; for Post-emergence Test IPOHE, percentage damage to the plant (five-point scale): post-emergence spray; for IPOHE, percentage damage caused to the plant (five-point scale): post-emergence
Method in brief: (§2)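 Sown pots; spray 1000 g/ha (unless stated) in acetone/water 50:50 + 0.5% Tween 20; glasshouse 24/16 °C, 14 h light, 65% RH; watered twice daily; % damage read at 13 days, scored 1–5.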

[4] = test system: Lolium perenne (LOLPE); assay: as above; conditions: post-emergence spray, 1000 g/ha unless otherwise stated, evaluated after 13 days
Method in brief: as §1

[5] = test system: Setaria faberi (SETFA); assay: as above; conditions: 1000 g/ha unless otherwise stated, evaluated after 13 days; for Post-emergence Test SETFA, percentage damage to the plant (five-point scale): post-emergence spray; for SETFA, percentage damage caused to the plant (five-point scale): post-emergence
Method in brief: as §2

[6] = test system: Amaranthus retoflexus (AMARE); assay: Pre-emergence Test (glasshouse, percentage damage to the plant); conditions: 1000 g/ha unless otherwise stated; for percentage damage to the plant, AMARE: five-point scale; for percentage damage to the plant, AMARE (five-point scale): Amaranthus retoflexus
[7] = test system: Setaria faberi (SETFA); assay: as above; conditions: 1000 g/ha unless otherwise stated; for percentage damage to the plant, SETFA: five-point scale; for percentage damage to the plant, SETFA (five-point scale): Setaria faberi
[8] = test system: Lolium perenne (LOLPE); assay: as above; conditions: 1000 g/ha unless otherwise stated, five-point scale
[9] = test system: Echinochloa crus-galli (ECHCG); assay: as above; conditions: 1000 g/ha unless otherwise stated; for percentage damage to the plant, ECHCG: five-point scale; for percentage damage to the plant, ECHCG (five-point scale): Echinochloa crus-galli
[10] = test system: Ipomoea hederacea (IPOHE); assay: as above; conditions: 1000 g/ha unless otherwise stated; for percentage damage to the plant, IPOHE: five-point scale; for percentage damage to the plant, IPOHE (five-point scale): Ipomoea hederacea
[11] = test system: Amaranthus palmeri (AMAPA); assay: Post-emergence Test (glasshouse, percentage damage to the plant); conditions: post-emergence; 1000 g/ha unless otherwise stated; evaluated after 13 days
Method in brief: as §1

[12] = test system: Zea mays (ZEAMX); assay: as above; conditions: post-emergence; 1000 g/ha unless otherwise stated; evaluated after 13 days
Method in brief: as §2

[13] = test system: Zea mays (ZEAMX); assay: Pre-emergence Test (glasshouse, percentage damage to the plant); conditions: 1000 g/ha unless otherwise stated, Zea mays
[14] = test system: Amaranthus palmeri (AMAPA); assay: as above; conditions: 1000 g/ha unless otherwise stated, Amaranthus palmeri

| Compound | Post-emergence Test AMARE, percentage damage to the plant (five-point scale) [1] | Post-emergence Test ECHCG, percentage damage to the plant (five-point scale) [2] | Post-emergence Test IPOHE, percentage damage to the plant (five-point scale) [3] | Post-emergence Test LOLPE, percentage damage to the plant (five-point scale) [4] | Post-emergence Test SETFA, percentage damage to the plant (five-point scale) [5] | percentage damage to the plant, AMARE [6] | percentage damage to the plant, SETFA [7] | percentage damage to the plant, LOLPE [8] | AMAPA, percentage damage caused to the plant (five-point scale) [11] | AMARE, percentage damage caused to the plant (five-point scale) [1] | ECHCG, percentage damage caused to the plant (five-point scale) [2] | IPOHE, percentage damage caused to the plant (five-point scale) [3] | SETFA, percentage damage caused to the plant (five-point scale) [5] | ZEAMX, percentage damage caused to the plant (five-point scale) [12] | percentage damage to the plant, AMARE (five-point scale) [6] | percentage damage to the plant, SETFA (five-point scale) [7] | percentage damage to the plant, ECHCG (five-point scale) [9] | percentage damage to the plant, IPOHE (five-point scale) [10] | percentage damage to the plant, ZEAMX (five-point scale) [13] | percentage damage to the plant, AMAPA (five-point scale) [14] | further results |
| --- | --- | --- | --- | --- | --- | --- | --- | --- | --- | --- | --- | --- | --- | --- | --- | --- | --- | --- | --- | --- | --- |
| CCn1c(C)c(-c2ccc(F)cc2F)c(=O)c(C(=O)O)c1-c1ccc(-c2ccc(F)cc2F)c(Cl)c1 [Compound 4, 2-[3-chloro-4-(2,4-difluorophenyl)phenyl]-5-(2,4-difluorophenyl)-1-ethyl-6-methyl-4-oxo-pyridine-3-carboxylic acid] | 3 (3=41-60%) | 1 (1=0-20%) | 2 (2=21-40%) | 1 (1=0-20%) | 2 (2=21-40%) | 1 (1=0-20%) | 1 (1=0-20%) | 1 (1=0-20%) | – | – | – | – | – | – | – | – | – | – | – | – | percentage damage to the plant, ECHCG [9]: 1 (1=0-20%); percentage damage to the plant, IPOHE [10]: 1 (1=0-20%) |
| CCn1c(C)c(-c2ccc(F)cc2F)c(=O)c(C(=O)O)c1-c1ccc(Cl)c(Cl)c1 [Compound 3, 2-(3,4-dichlorophenyl)-5-(2,4-difluorophenyl)-1-ethyl-6-methyl-4-oxo-pyridine-3-carboxylic acid] | 5 (5=81-100%) | 5 (5=81-100%) | 4 (4=61-80%) | 4 (4=61-80%) | 5 (5=81-100%) | 5 (5=81-100%) | 5 (5=81-100%) | 3 (3=41-60%) | – | – | – | – | – | – | – | – | – | – | – | – | percentage damage to the plant, ECHCG [9]: 4 (4=61-80%); percentage damage to the plant, IPOHE [10]: 4 (4=61-80%) |
| CCn1c(C)c(-c2ccc(F)cc2)c(=O)c(C(=O)OC)c1-c1cnc(Cl)c(Cl)c1 [Compound 212, methyl 2-(5,6-dichloro-3-pyridyl)-1-ethyl-5-(4-fluorophenyl)-6-methyl-4-oxo-pyridine-3-carboxylate] | – | – | – | – | – | – | – | – | 1 (1=0-20%) | 1 (1=0-20%) | 0 | 0 | 0 | 0 | 0 | 3 (3=41-60%) | 2 (2=21-40%) | 0 | 0 | 1 (1=0-20%) | – |
| Cc1c(-c2ccc(F)cc2F)c(=O)c(C(=O)O)c(-c2ccc(Cl)c(Cl)c2)n1C [Compound 252, 2-(3,4-dichlorophenyl)-5-(2,4-difluorophenyl)-1,6-dimethyl-4-oxo-pyridine-3-carboxylic acid] | – | – | – | – | – | – | – | – | 5 (5=81-100%) | 4 (4=61-80%) | 5 (5=81-100%) | 2 (2=21-40%) | 4 (4=61-80%) | 2 (2=21-40%) | 3 (3=41-60%) | 4 (4=61-80%) | 5 (5=81-100%) | 3 (3=41-60%) | 0 | 5 (5=81-100%) | – |
| CCn1c(C)c(-c2cc(OCCOC)c(Cl)cc2F)c(=O)c(C(=O)O)c1-c1ccc(Cl)c(Cl)c1 [Compound 244, 5-[4-chloro-2-fluoro-5-(2-methoxyethoxy)phenyl]-2-(3,4-dichlorophenyl)-1-ethyl-6-methyl-4-oxo-pyridine-3-carboxylic acid] | – | – | – | – | – | – | – | – | 5 (5=81-100%) | 5 (5=81-100%) | 5 (5=81-100%) | 3 (3=41-60%) | 5 (5=81-100%) | 5 (5=81-100%) | 5 (5=81-100%) | 5 (5=81-100%) | 5 (5=81-100%) | 3 (3=41-60%) | 0 | 5 (5=81-100%) | – |
| CCn1c(C)c(-c2ccc(Cl)cc2)c(=O)c(C(=O)NN(C)C)c1-c1ccc(Cl)c(Cl)c1 [Compound 2, 5-(4-chlorophenyl)-2-(3,4-dichlorophenyl)-1-ethyl-N′,N′,6-trimethyl-4-oxo-pyridine-3-carbohydrazide] | 3 (3=41-60%) | 2 (2=21-40%) | 2 (2=21-40%) | 1 (1=0-20%) | 4 (4=61-80%) | 3 (3=41-60%) | 1 (1=0-20%) | 1 (1=0-20%) | – | – | – | – | – | – | – | – | – | – | – | – | percentage damage to the plant, ECHCG [9]: 1 (1=0-20%) |
| CCn1c(C)c(-c2cc(OC(C)C)c(Cl)cc2F)c(=O)c(C(=O)O)c1-c1ccc(F)c(F)c1 [Compound 260, 5-(4-chloro-2-fluoro-5-isopropoxy-phenyl)-2-(3,4-difluorophenyl)-1-ethyl-6-methyl-4-oxo-pyridine-3-carboxylic acid] | – | – | – | – | – | – | – | – | 4 (4=61-80%) | 4 (4=61-80%) | 4 (4=61-80%) | 3 (3=41-60%) | 4 (4=61-80%) | 3 (3=41-60%) | 4 (4=61-80%) | 4 (4=61-80%) | 5 (5=81-100%) | 3 (3=41-60%) | 1 (1=0-20%) | 4 (4=61-80%) | – |
| CCn1c(C)c(-c2cc(OCCOC)c(Cl)cc2F)c(=O)c(C(=O)O)c1-c1ccc(F)c(F)c1 [Compound 261, 5-[4-chloro-2-fluoro-5-(2-methoxyethoxy)phenyl]-2-(3,4-difluorophenyl)-1-ethyl-6-methyl-4-oxo-pyridine-3-carboxylic acid] | – | – | – | – | – | – | – | – | 4 (4=61-80%) | 5 (5=81-100%) | 4 (4=61-80%) | 2 (2=21-40%) | 4 (4=61-80%) | 3 (3=41-60%) | 4 (4=61-80%) | 4 (4=61-80%) | 4 (4=61-80%) | 4 (4=61-80%) | 1 (1=0-20%) | 5 (5=81-100%) | – |
